Values joined by “and” are separate entries in the source; they are usually repeats but may differ in a detail not shown here. Identical values can stand only once.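 How tested: cells in 96-well plates exposed to compound for 48 hours at five concentrations. Abbreviation: GI50, concentration required for 50% inhibition of growth. TGI: total growth inhibition.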
What was measured:
Test in all cases: NCI tumour cell line growth inhibition, 48 h
[1] = tested on: A549 NSCLC
[2] = tested on: ACHN renal
[3] = tested on: MOLT-4 leukemia
[4] = tested on: SF-268 CNS
[5] = tested on: TK-10 renal
[6] = tested on: U251 CNS
[7] = tested on: OVCAR-4 ovarian
[8] = tested on: BT-549 breast
[9] = tested on: HS 578T breast
[10] = tested on: MCF7 breast

Row | SMILES | TGI [1] | TGI [2] | TGI [3] | TGI [4] | TGI [5] | TGI [6] | TGI [7] | GI50 [1] | GI50 [2] | GI50 [8] | TGI [8] | GI50 [9] | TGI [9] | GI50 [10] | TGI [10] | GI50 [3] | GI50 [7] | GI50 [4] | GI50 [5] | GI50 [6]
1 | NC(=S)N1N=C2CCCCCC[C@@H]2[C@H]1c1ccccc1 | > 100 µM | > 100 µM | > 100 µM | > 100 µM | > 100 µM | > 100 µM | – | – | – | – | – | – | – | – | – | – | – | – | – | –
2 | O=C1CCCCCCC2=C1C(Sc1ccccc1)CC2 (stereo unspecified) | > 100 µM | > 100 µM | > 100 µM | 44 µM | > 100 µM | > 100 µM | > 100 µM | – | – | – | – | – | – | – | – | – | – | – | – | –
3 | CCC1=C(c2ccc(OC)cc2)C(C)(C)Oc2c1ccc(O)c2CN1CCCC1 | 26.8 µM | > 100 µM | 6.53 µM | > 100 µM | 31.3 µM | 3.04 µM | 29 µM | 3.63 µM | 3.6 µM | 2.29 µM | 12.7 µM | 3.44 µM | 35.1 µM | 1.57 µM | 3.2 µM | 2.18 µM | 2.16 µM | 8.8 µM | 5.26 µM | 1.48 µM
4 | CCC[CH2][Sn](=[O])[CH2]CCC | > 50 µM | > 50 µM | > 50 µM | > 50 µM | > 50 µM | > 50 µM | > 50 µM | > 50 µM | > 50 µM | – | – | – | – | – | – | > 50 µM | > 50 µM | > 50 µM | > 50 µM | > 50 µM
5 | COc1ccc(Br)cc1NC(=O)Nc1cccc2c1ccn2Cc1ccnc(N)c1 | 22.7 µM and > 10 µM | 23.2 µM and > 10 µM | 18.9 µM and > 10 µM | 32.5 µM and > 10 µM | 16.6 µM and > 10 µM | 15.6 µM and > 10 µM | > 47.8 µM | 5.64 µM and > 10 µM | 5.51 µM and 4.91 µM | 11.7 µM and > 10 µM | 38.6 µM and > 10 µM | 1.84 µM and 3.81 µM | 16.2 µM and > 10 µM | 3.82 µM and 5.69 µM | 20.7 µM and > 10 µM | 3.06 µM and 3.14 µM | 3.85 µM and 5.52 µM | 6.16 µM and > 10 µM | 5.33 µM and 7.07 µM | 4.55 µM and 5.4 µM
6 | CC(C)(C)C1=CC(=N/N=c2\scc(-c3ccccc3)n2-c2ccccc2)C=C(C(C)(C)C)C1=O | > 100 µM | > 100 µM | > 100 µM | > 100 µM | > 100 µM | > 100 µM | > 100 µM | – | – | – | – | – | – | – | – | – | – | – | – | –
7 | COc1ccc2c(c1)c(-c1nc(-c3cn(C)c4ccncc34)cs1)cn2C | 3.99 µM | 3.11 µM | – | 4.4 µM | 3.06 µM | 3.4 µM | 4.62 µM | 1.93 µM | 1.73 µM | – | – | – | – | 1.7 µM | 3.34 µM | – | 2.1 µM | 2.07 µM | 1.49 µM | 1.85 µM
8 | CC(=O)OCc1c(O)c2c([nH]c1=O)CCc1ccccc1-2 | > 350 µM | > 350 µM | > 350 µM | 221 µM | 186 µM | > 350 µM | – | – | – | – | – | – | – | – | – | – | – | – | – | –
9 | Cc1c(CN2CCN(C(=O)[C@H](C)O)CC2)sc2c(N3CCOCC3)nc(-c3cnc(N)nc3)nc12 | 9.75 µM and 7.57 µM | – | > 10 µM and 12.7 µM | > 10 µM and 27.1 µM | 3.51 µM and 0.825 µM | > 35.8 µM | 3.86 µM and 1.09 µM | 0.439 µM and 0.207 µM | 0.203 µM and 0.145 µM | 0.146 µM and 0.065 µM | 3.11 µM and 0.57 µM | 0.0539 µM and 0.0446 µM | 0.541 µM and 0.352 µM | 0.0428 µM and 0.0379 µM | > 100 µM | 0.175 µM and 0.139 µM | 0.346 µM and 0.144 µM | 0.328 µM and 0.204 µM | 0.191 µM and 0.131 µM | 1.05 µM and 0.328 µM
10 | Cc1c(Cn2c(C)nc3c(C(=O)O)cc(N4CCOCC4)cc32)cccc1C(F)(F)F | > 100 µM | > 100 µM | > 100 µM | > 100 µM | > 100 µM | > 100 µM | > 100 µM | 54.3 µM | 8.73 µM | 25.8 µM | > 100 µM | 50.5 µM | > 100 µM | 42.7 µM | > 100 µM | 56.6 µM | 42.4 µM | 56 µM | 34 µM | 49.5 µM
11 | CCN(CC)CCN(CC)CC.CCN(CC)CCN(CC)CC.[Cu+2].[Cu+2].[O-][Cl+3]([O-])([O-])[O-].[OH3+].[OH3+] | > 100 µM | > 100 µM | > 100 µM | 50.3 µM | > 100 µM | 32.1 µM | 51.2 µM | 30.2 µM | > 100 µM | – | – | – | – | – | – | 91.4 µM | 27.7 µM | 23.9 µM | 96.7 µM | 17.2 µM
12 | COc1ccc(NC(=O)Oc2ccc3c(C)cc(=O)oc3c2)c(OC)c1 (tested in a mixture with another compound) | > 100 µM | > 100 µM | > 100 µM | > 100 µM | > 100 µM | > 100 µM | > 100 µM | – | – | – | – | – | > 100 µM | – | – | – | – | – | – | –
13 | NC(=O)CC1OC(=O)Cc2cc3c(c(O)c21)C(=O)c1c(O)cccc1C3=O (stereo unspecified) | > 100 µM | > 100 µM | > 100 µM | – | > 100 µM | > 100 µM | > 100 µM | – | – | – | > 100 µM | – | – | – | > 100 µM | – | – | – | – | –
14 | CCOC(=O)C1(C(=O)OCC)C(C(C)(C)C)=C(C)c2ccccc21 | > 100 µM | 28 µM | > 100 µM | 39.1 µM | 72.4 µM | 30.1 µM | 45.3 µM | – | – | – | – | – | – | – | – | – | – | – | – | –
15 | O=C(C[n+]1ccccc1)N/N=C(/CCC(=O)N(Cc1ccccc1)Cc1ccccc1)CC(=O)c1ccccc1 | > 100 µM | > 100 µM | > 100 µM | > 100 µM | > 100 µM | > 100 µM | > 100 µM | – | – | – | – | – | – | – | – | – | – | – | – | –
16 | CC(=O)OC12C(C)=C(C)C(=O)N1c1ccccc1N2C(C)=O (stereo unspecified) | > 100 µM | > 100 µM | > 100 µM | > 100 µM | > 100 µM | > 100 µM | > 100 µM | – | – | – | – | – | – | – | – | – | – | – | – | –
17 | NC(=O)c1cc(N2CC2)c([N+](=O)[O-])cc1[N+](=O)[O-] | > 200 µM | > 200 µM | > 63.2 µM | > 200 µM | > 200 µM | > 200 µM | > 200 µM | – | > 200 µM | – | – | – | > 200 µM | – | > 63.2 µM | – | > 200 µM | > 200 µM | – | > 200 µM
18 | CC1=CCC2CC1C(C(=O)c1c[nH]c3ccccc13)=NC2(C)C (stereo unspecified) | > 100 µM | > 100 µM | > 100 µM | > 100 µM | – | > 100 µM | > 100 µM | – | – | – | > 100 µM | – | > 100 µM | – | > 100 µM | – | – | – | – | –
